By IC50 is commonly meant the concentration at which inhibition is half-maximal.

The test system of one data set is SW480. Nature of the data set: Antimitotic effects (G2/M cell cycle block, DNA staining, ModFit) on SW480. Conditions: for % of Taxol (proportion of cells in G2M test/proportion of cells in G2M Taxol): 24 hrs, standard 1 μM Taxol; for IC50: Homo sapiens, inhibitors added to cells in log-growth for 24 hrs, read-out: IC50 for progression through the cell cycle. In kind it is cell-based, human. The text has this: (§1) For the initial studies two colon carcinoma cell lines (LIM1215 and SW480) and two breast cancer cell lines (MDA-MB-231 and MCF-7) were used. Taxol was used as comparator in these experiments (Table 1).

For the next data set, the system named is LIM1215. In words: Antimitotic effects (G2/M cell cycle block, DNA staining, ModFit) on LIM1215. In kind it is cell-based, human. The conditions noted are these: for % of Taxol (proportion of cells in G2M test/proportion of cells in G2M Taxol): 24 hrs, standard 1 μM Taxol; for IC50: Homo sapiens, inhibitors added to cells in log-growth for 24 hrs, read-out: IC50 for progression through the cell cycle.
Source text: as §1

Data set [1] is described as follows: Dose escalation in mice (tolerability and toxicity). It is filed as in vivo. The conditions noted are these: C57Bl/6 mice, subcutaneous in DMSO, sacrificed 24 hrs post-injection. The method, then:
Compound 1 was initially tested for tolerability and toxicity in mice. C57Bl/6 mice (aged 8-12 weeks) were injected subcutaneously with escalating doses of Compound 1 in a constant volume of DMSO. Mice were sacrificed 24 hrs post-injection. There were no adverse effects of doses up to 80 mg/kg within this time-frame. Thus the compound is well tolerated at doses that far exceed the IC50 observed “in vitro”.
These minor skin lesions healed readily within 2-3 days.

For the next data set, the system named is MDA-MB-231. Nature of the data set: Antimitotic effects (G2/M cell cycle block, DNA staining, ModFit) on MDA-MB-231. It is filed as cell-based, human. The conditions noted are these: for % of Taxol (proportion of cells in G2M test/proportion of cells in G2M Taxol): 24 hrs, standard 1 μM Taxol; for IC50: Homo sapiens, inhibitors added to cells in log-growth for 24 hrs, read-out: IC50 for progression through the cell cycle.
Source text: as §1

The subject of another data set is MCF-7. In words: Antimitotic effects (G2/M cell cycle block, DNA staining, ModFit) on MCF-7. In kind it is cell-based, human. Conditions: for % of Taxol (proportion of cells in G2M test/proportion of cells in G2M Taxol): 24 hrs, standard 1 μM Taxol; for IC50: Homo sapiens, MCF7, inhibitors added to cells in log-growth for 24 hrs, read-out: IC50 for progression through the cell cycle.
Source text: as §1

In data set [2] the test system is LIM2537 human colon carcinoma cell line. In words: MTS assay using LIM2537 human colon carcinoma cell line. In kind it is cell-based. Conditions: 96 h, LIM2537, 4 days incubation, read-out: IC50 Range. The method, then:
• Cells plated at […] in 100 μl medium+5% FCS (+Adds^1): • Cells incubated overnight: • Titrate inhibitors in a fresh plate in 150 μl medium • Transfer 100 μl titrated compounds to matching wells of the cell plate. • Incubate a further 4 days: • Add 10 μl MTS^2 or MTT^3 for 1.5 to 2 hours and read on Multiscanner (wavelengths 492/690) ^1 Additives for culture of LIM cell lines: 10 μM thioglycerol, 0.025 U/ml insulin, 1 μg/ml hydrocortisone. ^2 3-(4,5-dimethylthiazol-2-yl)-5-(3-carboxymethoxyphenyl)-2-(4-sulfophenyl)-2H-tetrazolium. ^3 3-(4,5-Dimethylthiazol-2-yl)-2,5-diphenyltetrazolium bromide
• LIM2537 human colon carcinoma cell line, grown in RPMI+Adds^1+5% FCS
Cells are trypsinized and washed ×2 in medium+5% FCS and plate out at 10^4 cells per well in 100 μl.
Incubate plates o/n 37° C.+5%-10% CO2 incubator.
Inhibitors are dissolved in DMSO to make 10 mM stocks and titrated in a 96 well plate in duplicate to use as the stock for the test plate. Titration range from 40 μM down to […] in ½ dilutions and 100 μl of each dilution transferred to the appropriate wells of the test plate that contains the cells (also in 100 μl) which results in the final concentration of the inhibitors being 20 μM down to 0.01 μM across the rows in duplicate. Three inhibitors are tested per plate (Rows A-F).
Each plate has the following: • Rows A,B: Inhibitor 1 dilutions, 200 μl per well • Rows C,D: Inhibitor 2 dilutions, 200 μl per well • Rows E,F: Inhibitor 3 dilutions, 200 μl per well • Control row G1-6: Medium+5% FCS (for maximum growth) • Control row G7-12: Taxol (250 nM for maximal inhibition) • Control row H: Remove medium from cells and replace with 200 μl Serum Free medium for serum free growth rate.
Incubate plates for 4 days in incubator. Process with MTS or MTT as outlined below.
To each well add 10 μl MTS (Sigma) solution. Incubate MTS for 1.5 to 2 hours and MTT for 4 hours. Stop reaction by adding 10 μl 10% SDS to each well. Read on Multiscan (492/690) plate reader, plot colour change versus concentration of inhibitor to establish the IC50.
A general note: Formazan colour is commonly taken as a measure of viable cells.

The next data set concerns tubulin. In words: Tubulin polymerization in intact cells (soluble vs polymerized tubulin, immunoblot). It is filed as cell-based. The conditions noted are these: LIM 1215 cells, NP-40 lysis, immunoblot with β-tubulin antibodies. (In general: Immunoblotting shows a protein as a band on a membrane.)

Method for tubulin: Equal volumes of supernatant and resuspended insoluble material were analyzed by SDS/PAGE and immunoblotting with antibodies to β-tubulin. S=soluble and P=polymerized tubulin. […] To monitor the effects of triazines on tubulin, the present inventors tested tubulin polymerization in intact cells following exposure to the drug. Cells treated with Taxol or with compound 3 were lysed in hypotonic buffer containing 0.5% NP-40 and the cellular extracts were centrifuged at high speed. Polymerized tubulin is detergent-insoluble: thus after this treatment soluble tubulin is recovered in the supernatants (S), and polymerized tubulin in the cellular pellets (P). The relative proportion of the two forms was monitored by SDS/PAGE and immunoblotting with tubulin-specific antibodies.

As for `COc1ccc(CNc2nc(NCc3ccc(OC)cc3)nc(NN3CC(=O)NC3=O)n2)cc1` [Compound 1, 1-[4,6-Bis-(4-methoxybenzylamino)-{1,3,5}-triazin-2-yl-amino]-imidazolidine-2,4-dione], the “% of Taxol (proportion of cells in G2M test/proportion of cells in G2M Taxol)” value is reported as 120% in the data set on SW480, 105% with LIM1215, 94% in the data set with MDA-MB-231 and 108% in the data set on MCF-7. In addition, the IC50 in the data set with SW480 is 0.05 µM; with LIM1215, 0.07 µM; in the data set on MDA-MB-231 it was 0.013 µM; in the data set on MCF-7, 0.009 µM. The “Doses with no adverse effects” value in data set [1] is given as “up to 80 mg/kg”.

In the case of `COc1ccc(CNc2nc(NCc3ccc(OC)cc3)nc(NC3NC(=O)N(C)C3=O)n2)cc1` (centres unmarked) [Compound 3, 5-[4,6-Bis-(4-methoxy-benzylamino)-[1,3,5]-triazin-2-ylamino]-3-methyl-imidazolidine-2,4-dione], the “% of Taxol (proportion of cells in G2M test/proportion of cells in G2M Taxol)” value is on record as 106% with SW480, 108% with LIM1215, 93% with MDA-MB-231 and 102% in the data set with MCF-7. For the same molecule, the half-inhibitory concentration (IC50) amounted to 1.45 µM in the data set with SW480, 3 µM in the data set with LIM1215, 3 µM with MDA-MB-231 and 0.45 µM in the data set with MCF-7.

Regarding `COc1ccc(CNc2nc(NCc3ccc(CN4CCCCC4)cc3)nc(NN3CC(=O)NC3=O)n2)cc1` [Compound 13, 1-((4-((4-methoxybenzyl)amino)-6-((4-(piperidin-1-ylmethyl)benzyl)amino)-1,3,5-triazin-2-yl)amino)imidazolidine-2,4-dione], in data set [2], the half-inhibitory concentration (IC50) was 0.1 to 1 µM.

In the case of `COc1ccc(CNc2nc(NCc3ccc(CN4CCOCC4)cc3)nc(NN3CC(=O)NC3=O)n2)cc1` [Compound 14, 1-((4-((4-methoxybenzyl)amino)-6-((4-(morpholinomethyl)benzyl)amino)-1,3,5-triazin-2-yl)amino)imidazolidine-2,4-dione], in data set [2], the IC50 was over 10 µM.

With `CCN(CC)Cc1ccc(CNc2nc(NCc3ccc(OC)cc3)nc(NN3CC(=O)NC3=O)n2)cc1` [Compound 15, 1-((4-((4-((diethylamino)methyl)benzyl)amino)-6-((4-methoxybenzyl)amino)-1,3,5-triazin-2-yl)amino)imidazolidine-2,4-dione], the 50% inhibitory concentration (IC50) in data set [2] lay within 1 to 10 µM.

For `COc1ccc(CNc2nc(NCc3ccc(CN4CCN(C)CC4)cc3)nc(NN3CC(=O)NC3=O)n2)cc1` [Compound 16, 1-((4-((4-methoxybenzyl)amino)-6-((4-((4-methylpiperazin-1-yl)methyl)benzyl)amino)-1,3,5-triazin-2-yl)amino)imidazolidine-2,4-dione], the IC50 in data set [2] was at most 0.1 µM.

In the case of `COc1ccc(CNc2nc(NCc3ccc(N4CCCCC4)cc3)nc(NN3CC(=O)NC3=O)n2)cc1` [Compound 17, 1-((4-((4-methoxybenzyl)amino)-6-((4-(piperidin-1-yl)benzyl)amino)-1,3,5-triazin-2-yl)amino)imidazolidine-2,4-dione], in data set [2], the IC50 was at most 0.1 µM.

For `COc1ccc(CNc2nc(NCc3ccc(N4CCOCC4)cc3)nc(NN3CC(=O)NC3=O)n2)cc1` [Compound 18, 1-((4-((4-methoxybenzyl)amino)-6-((4-morpholinobenzyl)amino)-1,3,5-triazin-2-yl)amino)imidazolidine-2,4-dione], the IC50 in data set [2] was in the range of 0.1 to 1 µM.

Consider `COc1ccc(CNc2nc(NCc3ccc(N4CCN(C)CC4)cc3)nc(NN3CC(=O)NC3=O)n2)cc1` [Compound 19, 1-((4-((4-methoxybenzyl)amino)-6-((4-(4-methylpiperazin-1-yl)benzyl)amino)-1,3,5-triazin-2-yl)amino)imidazolidine-2,4-dione], for which, in data set [2], the IC50 lay in the range of 0.1 to 1 µM.

`COc1ccc(CNc2nc(NCc3cccc(N4CCCCC4)c3)nc(NN3CC(=O)NC3=O)n2)cc1` [Compound 20, 1-((4-((4-methoxybenzyl)amino)-6-((3-(piperidin-1-yl)benzyl)amino)-1,3,5-triazin-2-yl)amino)imidazolidine-2,4-dione]: in data set [2], the IC50 lay within 0.1 to 1 µM.

As for `COc1ccc(CNc2nc(NCc3cccc(N4CCOCC4)c3)nc(NN3CC(=O)NC3=O)n2)cc1` [Compound 21, 1-((4-((4-methoxybenzyl)amino)-6-((3-morpholinobenzyl)amino)-1,3,5-triazin-2-yl)amino)imidazolidine-2,4-dione], the IC50 in data set [2] fell in the range of 1 to 10 µM.

For `COc1ccc(CNc2nc(NCc3cccc(N4CCN(C)CC4)c3)nc(NN3CC(=O)NC3=O)n2)cc1` [Compound 22, 1-((4-((4-methoxybenzyl)amino)-6-((3-(4-methylpiperazin-1-yl)benzyl)amino)-1,3,5-triazin-2-yl)amino)imidazolidine-2,4-dione], in data set [2], the IC50 is over 10 µM.

As to `CCN(CC)CCOc1ccc(CNc2nc(NCc3ccc(OC)cc3)nc(NN3CC(=O)NC3=O)n2)cc1` [Compound 23, 1-((4-((4-(2-(diethylamino)ethoxy)benzyl)amino)-6-((4-methoxybenzyl)amino)-1,3,5-triazin-2-yl)amino)imidazolidine-2,4-dione], in data set [2], the IC50 lay in the range of 1 to 10 µM.

On to `COc1ccc(CNc2nc(NCc3ccc(OCCN4CCOCC4)cc3)nc(NN3CC(=O)NC3=O)n2)cc1` [Compound 24, 1-((4-((4-methoxybenzyl)amino)-6-((4-(2-morpholinoethoxy)benzyl)amino)-1,3,5-triazin-2-yl)amino)imidazolidine-2,4-dione], for which, in data set [2], the IC50 was in the range of 0.1 to 1 µM.

As for `CC(=O)O[C@H]1C(=O)[C@@]2(C)[C@H]([C@H](OC(=O)c3ccccc3)[C@]3(O)C[C@H](OC(=O)[C@H](O)[C@@H](NC(=O)c4ccccc4)c4ccccc4)C(C)=C1C3(C)C)[C@]1(OC(C)=O)CO[C@@H]1C[C@@H]2O` [Taxol, reference compound], the “% of Taxol (proportion of cells in G2M test/proportion of cells in G2M Taxol)” value in the data set with SW480, in the data set on LIM1215, in the data set on MDA-MB-231 and with MCF-7 was 100% throughout. Moreover, the half-maximal inhibitory concentration (IC50) in the data set with SW480 amounted to 0.008 µM; in the data set with LIM1215 it was 0.01 µM; in the data set on MDA-MB-231, 0.008 µM; in the data set with MCF-7, 0.008 µM. Besides, in the data set with tubulin, the “Stabilization of tubulin in treated cells (soluble vs polymerized)” value was “strongly stabilized tubulin in a dose-dependent manner”.

These data come from patent US8835629B2, “Anti-cancer agents” (The Walter and Eliza Hall Institute of Medical Research, priority 2010, dated 2014).
